Measurements published in patent US10827753B2, “Compositions and methods for controlling nematodes” (Monsanto Technology LLC, priority 2007, dated 2020).
Marks after values point to notes of the source that are not given here.

Experiments:
Meloidogyne incognita [1] = experiment: M. incognita miniaturized greenhouse assay on cucumber seedlings (root galling); format: in vivo; design: key to 1 ppm gall ratings / 1 ppm gall rating: mean of 3 gall ratings: 0=0-5%, 1=6-20%, 2=21-50%, 3=51-100% root galled
How it was run: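 Compound in acetone/Triton X100 stock (5 mg/mL) diluted into water with 0.015% Triton X100 and applied to sand-planted sprouted cucumber seedlings; inoculated with 500 M. incognita eggs two days after planting. Roots harvested 10–12 days later; galling scored 0–3 by % root mass galled, averaged over triplicates, plus visual root phytotoxicity rating.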

Meloidogyne incognita [2] = experiment: Fall nematicidal field testing on squash microplots; format: in vivo; conditions: for RG28 = % root galls at 28 days after treatment / RG43 = % root galls at 43 days after treatment: squash
Text: The test site was located at 3511 Highway F in New Melle, Mo., Saint Charles county. The soil was a native prairie/pasture covering silty clay loam soil. Holes were dug using a Bobcat 763 skid loader with a 12-inch auger to a depth of 18 inches. Total volume of each hole was about 1.2 cubic feet. Six cubic yards of topsoil and 9 tons of river sand were purchased from Dardenne Farms Topsoil. Mixing to a ratio of 4 volumes sand to 1 volume soil was accomplished using a trailer-mounted 9 cubic foot concrete mixer. Holes were filled and then re-filled 5 days later after settling. The mixture was 92.5% sand, 2.5% silt, and 5% clay. Organic matter was 0.2% and pH was 6.8.
Treatments were arranged in a block design with the blocks laid out perpendicular to the primary slope and parallel to secondary slope. There are 7 inoculated controls and 5 non-inoculated controls and the distributions of disease severity appeared independent of location.
Application rates are expressed as kg of active material per hectare, and the mg per plot is based on the surface area of the bored and filled holes (0.000008559 Ha). The DC compounds were formulated immediately before application as follows: 1) the amount required to treat all six replicates was dissolved in 300 ml of acetone, 2) for each plot 50 ml of that solution was added to a graduated cylinder with 2 ml of 12.5% Triton X100 and the volume was raised to 500 ml with tap water. The resultant mix is the same as used in the standard greenhouse assays (10% acetone, 0.05%×100). The oxamyl treatments were prepared from Vydate 2 L formulated the same way. The 500 ml was placed in a watering can and the entire volume was evenly sprinkled over the surface of the plot. No runoff occurred and pooling, if any, was short lived. The final drench volume was 0.58 ml/cm^2, compared to 0.2 ml/cm^2 used in our greenhouse, however the microplots are much deeper so the drench volume applied per soil volume treated is roughly the same.
Meloidogyne incognita eggs were harvested over a two week period and stored at approximately 5° C. until needed. A stock of 5.6 million vermiform eggs was adjusted to 9000/ml in 620 ml. One day after treatment, two holes were made in each plot about 7 cm apart and equidistant from the squash plants. Five ml of egg suspension was pipetted into each hole, which was then sealed and the plot lightly watered. A total of 90,000 vermiform eggs were added to each plot.
The first root evaluation was at 28 DAT. The tops were cut off and weighed immediately in the field, and the roots were carefully dug out so as not to disturb the remaining plant.

Meloidogyne incognita [3] = experiment: Summer field evaluation of pre-plant incorporated compounds on squash; format: in vivo; conditions: for 0-3 vigor 16 DAP / 0-3 vigor 21 DAP / feeder root (3 = ave) 31 DAP / gall % 31 DAP / root wgt (g) 31 DAP / top wgt (lbs) 31 DAP / total fruit (lbs): 4 kg (kg/ha) PPI, squash
Experimental: Test plots of 33 cm diameter holes were bored 41 cm deep into clay soil and filled with a mixture of 80% sand and 20% silt loam soil. Technical compound for each treatment was dissolved in 50 ml acetone containing 250 ul of Triton X-100 surfactant. This solution was added to 450 ml water and poured onto 95 liters of sand/soil mixture in a rotating drum mixer. While continuing to rotate the mixing drum 66 grams of chopped, galled, tomato roots was added and thoroughly distributed. The treated soil was sufficient to fill the top 15 cm of each of the 6 replicate plots, thus simulating a PPI treatment. The plots were then watered lightly and a mixture of M. incognita eggs and larvae were injected 5 cm deep at 5 points within the plot (100 k eggs/larvae in 10 ml per plot). Three-week old squash (cv. Liberator III) with 1 fully expanded true leaf was planted 4 days after soil treatment, one per plot.

[4] = system: Heterodera glycines (SCN); experiment: Seed treatment test of soybean cyst nematode on soybean plants; format: in vivo
Experimental: For a given concentration the chemical is dissolved in 500 ul of acetone and one gram of cucumber seed (RKN test) or soybean seed (SCN test) is added (e.g., 20 mg active ingredient in 500 ul acetone plus 1 gram of seed). The seed solutions are agitated until all seeds were thoroughly covered with the chemical solution. The acetone is then allowed to evaporate by air drying the seeds. The seeds are planted in 2-inch pots containing sandy soil and then the pots are inoculated with 1000 Meloidogyne incognita (RKN) or 1000 Heterodera glycines (SCN) eggs per pot three days after planting. Plants are rated for galling 14 days after egg inoculation for RKN or 28 days after egg inoculation for SCN.

mice = conditions: cited from earlier work
[5] = system: sting (Belonolaimus longicaudatus) nematodes; experiment: Sting nematode bench top soil assay; format: in vivo
Experimental: Populations of sting (Belonolaimus longicaudatus) nematodes are maintained on St. Augustine turf grass on soil in 15-cm pots. At test initiation the turf is removed from the pots and the soil containing nematode eggs, juveniles, and adults is subdivided into pots each containing a volume of 125 cm^3′ The compounds to be tested are dissolved in 3 ml of acetone using 3, 6, or 15 mg to achieve equivalent surface area application rates of 2, 4, or 10 kg/ha, respectively. The 3 ml acetone stock solution is added to 30 ml of water, and 5 ml of that solution is used to drench each of 6 replicate test pots prepared as described above. The treated pots containing nematodes are incubated in the laboratory at ambient temperature of approximately 25° C. After 3 days the soil from each pot is washed onto a modified Baermann apparatus comprised of a screen supporting a layer of filter paper on which the soil sample is placed and set in a dish of water. The samples are then incubated at 25° C. for 24 hours to allow the live nematodes to migrate through the paper and screen and into a water reservoir to be collected for counting with a light microscope. Nematodes that have been killed or immobilized by the test compounds are not able to migrate into the reservoir.

[6] = system: CD-1/Swiss derived albino mice; format: in vivo; conditions: 500 mg/kg oral, three female mice, observed up to 14 days
Experimental: Acute oral toxicity testing was performed in mice in accordance with test method P203.UDP, as administered by Eurofins/Product Safety Laboratories (Dayton, N.J.). CD-1/Swiss derived albino mice were obtained and group housed in suspended solid bottom caging. The mice were fed rodent chow and filtered tap water was supplied ad libitum. Following acclimation to the laboratory setting, a group of animals was fasted overnight by removing food from the cages. After the fasting period, three female mice were selected based on vitality and initial body weights. The individual compound doses were calculated from these body weights.
The test substance was prepared as a 1% (50 mg/kg) or 5% (500 mg/kg) weight to weight (w/w) mixture in a 0.5% w/w solution of carboxymethylcellulose (CMC) in distilled water. A tissue homogenizer was used to create a homogeneous mixture. A dose of 50 or 500 mg/kg was administered to three healthy mice per dose level by oral intubation using a ball-tipped gavage needle attached to a syringe. After administration, the animals were returned to their cages, and feed was replaced immediately after dosing.
Body weights were recorded prior to initiation and on Days 7 and 14 or a soon as possible after death.

root knot nematode (RKN) = experiment: RKN greenhouse soil assay on cucumber plants; format: in vivo, Meloidogyne incognita; conditions: 0 day treatment, test c
Text: Cucumber seeds are planted in a sandy soil mixture in two inch square plastic pots. When the cotyledons are fully opened and just as the first leaf begins to emerge, usually 7 days after planting, chemistry for the 7 day treatment is applied. One week later the chemistry for the 0 day treatment is applied. Separate plants are used for each application. The plants are generally in the 1-2 leaf stage now. At least four hours after the chemistry application the pots are inoculated with root knot nematode (RKN) eggs. Plants are rated for galling 14 days after the egg inoculation.
One milligram of chemistry per four pots is equal to one kilogram per hectare of chemical. A standard test uses four replications. For rates above 2 kg/ha, the desired amount of chemical is weighed into a 30 ml vial (example: 8 kg/ha rate=8 mg chemical in 30 ml vial). The chemical is dissolved in 2 ml of appropriate solvent, generally acetone. For rates below 2 kg/ha, 2 milligrams of chemistry is weighed into the vial and dissolved in 2 ml of the solvent. The appropriate amount of chemical concentrate is then pipetted into a separate 30 ml vial and solvent is added to bring the volume to 2 ml (example 0.5 kg/ha=0.5 ml of concentrate+1.5 ml solvent). Each dissolved concentrate is then brought to a total of 20 milliliters using 0.05% Triton X 100 surfactant solution.
Pots to be treated are moist but not saturated. To each of four pots, five milliliters of the appropriate chemical solution is pipetted to the media surface making sure to avoid contact with the base of the plant. Immediately following chemical application, using a mist nozzle, the pot surface is wetted sufficiently to saturate the pot watering in the chemistry. The chemical application is done in the morning.
Nematode eggs, either SCN or RKN, are added to distilled water to create a concentration of 1000 vermiform eggs […]. At least four hours after chemical treatment the eggs are applied to the treated pots plus non-treated check plants. A small hole about 1 cm deep is punched into the pot surface. One milliliter of the nematode egg slurry is pipetted into the hole. Immediately afterwards the hole is gently covered. Watering of the test plants is then restricted to only water as needed to prevent wilt for a period of 24 hours. After the 24 hour restricted watering, normal sub-irrigation watering is done for the duration of the test.

CNC(=O)O/N=C(\SC)C(=O)N(C)C [Oxamyl, oxamyl, reference compound]
gall ratings (Meloidogyne incognita [1]; 1 ppm (oxamyl standard of Table 1A), average of triplicate, scale 0-3): 0.67 (1 ppm) | 1 ppm gall ratings (Meloidogyne incognita [1]; Table 1B test a): 0.67 | 1 ppm gall ratings (Meloidogyne incognita [1]; Table 1B test b): 1 (1=6-20%) | 1 ppm gall ratings (Meloidogyne incognita [1]; Table 1B test c): 1.33 | 1 ppm gall ratings (Meloidogyne incognita [1]; Table 1B test d): 1.33 | 1 ppm gall ratings (Meloidogyne incognita [1]; Table 1B test e): 1 (1=6-20%) | 1 ppm gall rating (Meloidogyne incognita [1]; Table 1C test a): 1.33 | 1 ppm gall rating (Meloidogyne incognita [1]; Table 1C test b): 1 (1=6-20%) | 1 ppm gall rating (Meloidogyne incognita [1]; Table 1C test c): 0.67^c | 1 ppm gall rating (Meloidogyne incognita [1]; Table 1D test a): 1.33^a, | 1 ppm gall rating (Meloidogyne incognita [1]; Table 1D test b): 1^b (1=6-20%) | RG28 = % root galls at 28 days after treatment (Meloidogyne incognita [2]; 2 kg ai/ha drench): 45.0% | RG43 = % root galls at 43 days after treatment (Meloidogyne incognita [2]; 2 kg ai/ha drench): 42.3% | RG28 = % root galls at 28 days after treatment (Meloidogyne incognita [2]; 5 kg ai/ha drench): 10.5% | RG43 = % root galls at 43 days after treatment (Meloidogyne incognita [2]; 5 kg ai/ha drench): 17.3% | 0-3 vigor 16 DAP (Meloidogyne incognita [3]): 2.7 | 0-3 vigor 21 DAP (Meloidogyne incognita [3]): 2.5 | feeder root (3 = ave) 31 DAP (Meloidogyne incognita [3]): 3.0 | gall % 31 DAP (Meloidogyne incognita [3]): 85% | root wgt (g) 31 DAP (Meloidogyne incognita [3]): 37.0 g | top wgt (lbs) 31 DAP (Meloidogyne incognita [3]): 1.16 lbs | total fruit (lbs) (Meloidogyne incognita [3]): 1.09 lbs | percent cyst reduction relative to control blank treatment ([4]; 0.375 mg al/gram seed, test b): −4^b percent | percent cyst reduction relative to control blank treatment ([4]; 1.5 mg al/gram seed, test b): 71^b percent | oral LD50 in mice (mice): 2.3 mg/kg

CS/C(C)=N\OC(=O)N(C)SN(C)C(=O)O/N=C(\C)SC [Thiodicarb]
percent cyst reduction relative to control blank treatment ([4]; 0.375 mg al/gram seed, test a): 6^a percent | percent cyst reduction relative to control blank treatment ([4]; 1.5 mg al/gram seed, test a): −23^a percent

CNC(=O)O/N=C/C(C)(C)SC [aldicarb]
oral LD50 in mice (mice): 0.3 mg/kg

c1ccc(-c2cnc(-c3cccs3)o2)cc1 [compound 4417]
8 ppm gall ratings (Meloidogyne incognita [1]; 8 ppm, average of triplicate gall rating, scale 0-3 (% root mass galled)): 0.33 | Number of nematodes recovered from treated soil after 3 days incubation with the compound ([5]; 2 kg/ha): 24 | Number of nematodes recovered from treated soil after 3 days incubation with the compound ([5]; 4 kg/ha): 13 | Number of nematodes recovered from treated soil after 3 days incubation with the compound ([5]; 10 kg/ha): 7 | mortality, signs of gross toxicity and behavioral changes [6]: One animal died within four days | RG28 = % root galls at 28 days after treatment (Meloidogyne incognita [2]; 2 kg ai/ha drench): 25.5% | RG43 = % root galls at 43 days after treatment (Meloidogyne incognita [2]; 2 kg ai/ha drench): 38.2% | root weights (in words) (Meloidogyne incognita [2]; 2 kg/ha, 28 DAT): not affected | top weights (in words) (Meloidogyne incognita [2]; 2 kg/ha, 28 DAT): reduction in top weights | Leaf diameter of the first true leaves (Meloidogyne incognita [2]; 2 kg/ha, five days after treatment (5 DAT)): slight reduction | phytotoxicity on squash seedlings (Meloidogyne incognita [2]; 2 kg/ha, two days after treatment): slight phytotoxicity

Clc1ccc(-c2nsc(-c3ccco3)n2)c(Cl)c1 [compound 5960]
1 ppm gall ratings (Meloidogyne incognita [1]; Table 1B test e): 0.33^e | percent control (galling reduction) relative to the control blank treatment (root knot nematode (RKN); 0.05 kg/ha): — — 75^c percent | percent control (galling reduction) relative to the control blank treatment (root knot nematode (RKN); 0.1 kg/ha): — — 75^c percent | percent control (galling reduction) relative to the control blank treatment (root knot nematode (RKN); 0.25 kg/ha): — — 76^c percent | mortality, signs of gross toxicity and behavioral changes [6]: all animals survived, gained body weight, and appeared active and healthy | 0-3 vigor 16 DAP (Meloidogyne incognita [3]): 3.0 | 0-3 vigor 21 DAP (Meloidogyne incognita [3]): 3.0 | feeder root (3 = ave) 31 DAP (Meloidogyne incognita [3]): 3.3 | gall % 31 DAP (Meloidogyne incognita [3]): 24% | root wgt (g) 31 DAP (Meloidogyne incognita [3]): 32.6 g | top wgt (lbs) 31 DAP (Meloidogyne incognita [3]): 1.58 lbs | total fruit (lbs) (Meloidogyne incognita [3]): 1.61 lbs | control of M. incognita (in words) (Meloidogyne incognita [3]; PPI application at 4 kg/ha): significant control
